Test results: patent US12514909B2, “Lactate-protected hypoglycemia to treat glycolysis dependent pathological conditions, in particular cancer” (priority 2018, dated 2026)

What was measured:
[1] = Lactate-protected hypoglycemia (HG-HL) in anesthetized pig with extracorporeal HLa infusion; format: in vivo
Method: Then, after hyperlactatemia was established, an insulin bolus and continuous infusion of insulin were titrated to achieve a [Glu] of between 1.3 and 1.7 mmol/L (25 to 30 mg/dL). Once the HG (1.5 mmol/L) HL(8 mmol/L) state was achieved, this was maintained for 4 h. Then normoglycemia was allowed to return.
This example entails achievement and sustaining [Glu] at ˜1.5 mmol/L for 4 hours in a pig under a [Lac] of 8 mmol/L.
The preparation started the day before the intervention at 17:00. No food was given to the pig after this time.
On the morning of the intervention the pig ate a small fatty snack combined with 500 mg of metformin. The inhibitory action of metformin on gluconeogenesis is expected to start within 3 h.
A bolus of 0.03 mg/kg medetomidine, a bolus of 4 mg/kg tiletamine-zolazepam and a bolus of 2 to 2.5 mg/kg 1% propofol were delivered intravenously. After intubation, volume-controlled ventilation was started. The respiratory rate was adjusted to target etCO2of 35 to 45 mmHg and a tidal volume of 8 to 10 ml/kg. The tidal volume was later adjusted when required on etCO2, pCO2 and pH. Then a 2-lumen dialysis catheter was surgically placed into the internal jugular vein. An unfractionated heparin bolus of 5000 IU (200 IU/kg) was administered and CVVH was initiated with unfractionated heparin (400 IU/ml) at 1 ml/h, titrated to an activated clotting time (ACT) of 250 to 300 seconds.
Counter-response inhibition was achieved by subsequent intravenous delivery of labetalol (5 mg/ml) at 3 ml/h titrated to a relative heart rate reduction of 10/m, and an intravenous bolus of 25 μg octreotide (10 μg/ml), then the octreotide continuous infusion was proportionally adjusted to keep [Glu] in the desired hypoglycemic range.
Depending on the subsequent [Glu], insulin infusion rates were varied between 0 to 60 U/h. If necessary, an additional bolus dose of insulin was given at least 30 minutes after the initial delivery using the same criteria as described before.
Once both a [Glu] of 1.3 to 1.7 and a [Lac] of 8 to 10 mmol/L was reached, this HG(1.5)HL(8) state was maintained for 4 hours using the clamping technique. Approximately halfway during the HG(1.5)HL(8)-phase the octreotide infusion was stopped as the T1/2 of octreotide is longer than T^1/2 of insulin and because sustained suppression of the hypoglycemic counter response by octreotide might prolong the duration of glucose 50% support during the normoglycemia restoration phase.
During the HG-HL phase, sliding scale adjustments of insulin and glucose 50% pumps were executed.
The glucose 50% infusion rate was adjusted and eventually tapered to zero until stable normoglycemia was achieved.

[2] = cited from earlier work

SMILES | arterial pH and sodium levels throughout the experiment ([1]; 30 kg pig, 40% HLa via veno-venous extracorporeal circuit, [Lac] 8 mmol/L, [Glu] ~1.5 mmol/L for 4 h, with insulin, glucose 50%, octreotide, labetalol, metformin) | hemodynamic instabilities, electrocardiographic or rhythm disturbances ([1]; 30 kg pig, HG(1.5)HL(8) state for 4 h) | time after end of the HG-HL-phase until normoglycemia without exogenous glucose or lactate support ([1]; 30 kg pig, after 4 h HG(1.5)HL(8)) | metabolic alkalosis or hypernatremia on administration of high doses ([1]; high doses of HLa instead of NaLa) | side effects of intravenous administration of large amounts [2]
CC(O)C(=O)O (centres unmarked) [HLa, lactic acid] | maintained within the desired range | no hemodynamic instabilities, electrocardiographic or rhythm disturbances were observed | 90 min | did not lead to metabolic alkalosis or hypernatremia | –
CC(O)C(=O)[O-].[Na+] (centres unmarked) [sodium lactate] | – | – | – | – | systemic metabolic alkalosis and hypernatremia
